According to patent publication US5780008A, “Polyhdric phenol compounds” (Mallinckrodt Medical, Inc., priority 1997, dated 1998):
Each block holds one compound with its values, some of them ahead of it.

What was measured:
erythrocytes = experiment: binding of 3-125I-phloretin to erythrocytes; design: species or system human
Method: (§1) In order to be able to compare the binding to cancer cells with the binding to normal cells, the following experiments are carried out. Binding to certain cancer cells, viz. YAK1 mice lymphoma cells (10^6 cells/ml incubation medium) is compared with binding to erythrocytes of a young healthy person (10^6 cells/ml incubation medium), because erythocytes are typical reference cells for glucose transport studies.
(§2) The incubation media are respectively:
(§3) RPMI buffer pH=8; 11 mM in glucose, and
(§4) RPMI buffer/0.9% NaCl : 1/1.
(§5) Each 1 ml essay contains 5% of foetal calf serum and is spiked (50 μl) with 3-^125 I-phloretin (initial activity is measured). After 15 min incubation at 37° C., the suspension is centrifuged and the precipitate is resuspended with 1 ml cold buffer which is discarded after a second centrifugation. The final radioactive precipitate is suspended in 1 ml water and measured. The bound radioactivity is related to the initial activity.
Saturation binding of 3-^125 I-phloretin to 5.10^6 erythrocytes is performed in RPMI-buffer and Tris-buffer of pH 8. The binding experiments are performed at pH 8, because this is the pH of the RPMI buffer needed for optimum YAK1 cells growth. Incubation for 15 min at 37° C. Inhibition is studied by pre-incubation (15 min, 37° C.) of the erythrocytes in buffer containing 2.10^-4 M 3-Br-phloretin. After centrifugation, the Br-phloretin--containing solution is discarded and the precipitate washed with ice-cooled buffer. After a second centrifugation, the supernatant is discarded and the cells are resuspended in buffer containing 3-^125 I-phloretin. After incubation for 15 min at 37° C., the same above procedure is applied.
Phloretin is a weak acid (pK is approx. 7.3); only the uncharged (non-dissociated) form inhibits red cell glucose transport (Jennings et al., see above). Therefore the values mentioned hereinafter are corrected for dissociation.

YAK1 mice lymphoma cells = experiment: binding of 3-125I-phloretin to YAK1 lymphoma cancer cells
Method: as §1, §2, §3, §4, §5

hexokinase = experiment: hexokinase-model: inhibition of hexokinase catalysed 6-phosphorilation of glucose; type: biochemical
Text: The "hexokinase-model" is used as a model system for the glucose-transport proteins, which play a paramount role in the glucose metabolism.

[1] = in vivo distribution studies in rats
Method: The in vivo distribution in rats is determined by injecting approx. 10μCi of the compound to be evaluated into the tail vein of the test animals. The test animals are sacrificed at appropriate time intervals after injection and the radioactivity of the organs of interest is measured by gamma scintillation counting.

[2] = binding in human whole blood (RB/plasma distribution, reversibility); type: in vitro ADME
Method: Jennings et al. [J. Gen. Phys., […], 67, 381]have reported the binding of phloretin to whole red blood cells. Their results let to assume that phloretin should enter the erythrocytes and bind to haemoglobine. This should mean that a phloretin-based radiotracer should not be suitable for in vivo use. Therefore the reversibility of the binding is checked. For this purpose 3-^125 I-phloretin is added to whole heparinised blood. This is centrifuged, yielding serum S-*I and red blood portion RB-*I. S-*I and non-radioactive RB (1/1) and respectively non-radioactive S and RB-*I (1/1) are incubated at 37° C. for 15 min and centrifuged. The radioactivity of all the weighed aliquots is measured in a well NaI(Tl) detector.

bound/free value of 3-125I-phloretin after pre-incubation with inhibitor (erythrocytes; pre-incubation with 2×10^-4 M, 15 min 37° C., blank 0.193, average of 5 experiments): 0.081
inhibition of 3-125I-phloretin binding to erythrocytes (erythrocytes; pre-incubation with 2×10^-4 M, compared with blank): 58%
Compound: O=C(CCc1ccc(O)c(Br)c1)c1c(O)cc(O)cc1O [3-Br-phloretin, 3-bromophloretin]
decreased binding of 3-125I-phloretin to YAK1 cells (YAK1 mice lymphoma cells; co-incubation of 3-Br-phloretin, 15 min): 30%

inhibition potency for hexokinase relative to the original phloretin (hexokinase; versus phloretin): approx. 2 times
Compound: O=C(CCc1ccc(O)c(I)c1)c1c(O)cc(O)cc1O [3-I-phloretin]

high affinity binding in the presence of serum albumine (erythrocytes; at equilibrium): remains unchanged
influence of glucose on binding (erythrocytes; presence of 3.10^-3 -5.10^-3 M glucose): hardly influences
Bmax (erythrocytes; saturation binding 0.1 to 1.2 10^-10 M, Scatchard plot, pH 8): 4.7×10^-15 mol/10^6 erythrocytes
uptake in the heart and muscle in the presence of Br-phloretin (C.A.) ([1]; C.A. versus N.C.A.): decreased uptake
uptake in the lungs (lung versus blood) ([1]; approx. 10μCi into the tail vein): high uptake
nature of binding to plasma-proteins and RB [2]: bound reversibly
Compound: O=C(CCc1ccc(O)c([125I])c1)c1c(O)cc(O)cc1O [3-^125 I-phloretin]
increase of uptake to YAK1 lymphoma cancer cells as compared to erythrocytes (YAK1 mice lymphoma cells; YAK1 cells versus erythrocytes): > 2 factor

type of inhibition of hexokinase activity (hexokinase; from Lineweaver-Burck plots, with respect to glucose): competitive
Compound: O=C(CCc1ccc(O)cc1)c1c(O)cc(O)cc1O [phloretin, reference compound]
